This is an account of results in US20100081637A1, “Eczema treatment with vitamin D and analogs thereof method, composition and cream” (Innovia Skincare Corp., priority 2008, published 2010).

In series [1] the test system is pruritus. In words: Dose response of pruritus scores against vitamin D concentration (the FIGURE). The class given is in vivo, human. Particulars: topical application; read from the dose response graph. The text has this:
The FIGURE is a graph illustrating the dose response experimental data in terms of pruritus scores on the vertical scale and a vitamin D concentration in international units per gram (IU/g) on the horizontal scale, with up to four different timing parameters represented by adjacent differentiated bars for each concentration. Pruritus relief is the fastest observed benefit after topical application of our claimed formulations. The graph below indicates an effective concentration as low as 50 IU/g. This is also an indication of bioavailability of vitamin D and therefore an indication of the lowest effective concentration for the treatment of additional symptoms of eczema.

Series [2] has as its system phosphate metabolism. Conditions: Cross and Peterlik 1981; cited from earlier work.
Series [3] deals with lesions from atopic dermatitis. Particulars: five patients; calcipotriol 50 ug/g and maxacalitriol 25 ug/g, ointment; cited from earlier work.
Series [4] concerns atopic dermatitis. In words: Topical vitamin D cream in eczema / atopic dermatitis patients, case reports (Examples 1-6). Particulars: for effect of prior treatment on itch / effect of prior treatment on redness: prior treatments of the Example 3 patient, per parent. The text has this:
Person, diagnosed with atopic dermatitis. […] Prior treatments consisted of:
We apply the cream after bathing, before bedtime, and during the night, when needed for itching. […]
Adult […]. […] A vitamin D (400 IU/g) cream was applied. […]

The test system of series [5] is phosphate transport. Conditions: cited from earlier work; for influence of presence or absence of luminal Ca on phosphate transport: vascular perfusion, 65 pM 1,25-dihydroxyvitamin D3 or 6.5 nM 24,25-dihydroxyvitamin D3.

For the molecule `C=C1CC[C@H](O)C/C1=C/C=C1\CCC[C@]2(C)[C@@H]([C@H](C)CCCC(C)C)CC[C@@H]12` [vitamin D, cholecalciferol], the “lowest effective concentration for pruritus relief” value in series [1] came to 50 IU/g. Moreover, in series [2], the “activity with respect to phosphate metabolism” value is “active”.
Consider `C=C1/C(=C\C=C2/CCC[C@]3(C)[C@@H]([C@H](C)OCCC(C)(C)O)CC[C@@H]23)C[C@@H](O)C[C@@H]1O` [maxacalitriol], for which the “effect on lesions from atopic dermatitis” value in series [3] is recorded as “improvement of lesions”.
On to `Cl.OCCOCCN1CCN(C(c2ccccc2)c2ccc(Cl)cc2)CC1` (stereo not drawn) [Hydroxyz Hcl 10 mg], for which the “sleepiness under prior treatment” value in series [4] (human, in vivo) was “made their sleepy”. In series [4], the “effect of prior treatment on itch” value is reported as “did not help”.
Regarding `C=C1CC[C@H](O)C/C1=C/C=C1\CCC[C@]2(C)[C@@H]([C@H](C)CCCC(C)(C)O)CC[C@@H]12` [25-hydroxyvitamin D3], the “stimulation of phosphate transport relative to the normal concentration (100 nM)” value in series [5] (subnormal concentration (20 nM)) is “much higher rates”. In addition, in series [5] (vascular perfusion with 100 nM 25-hydroxyvitamin D3), the “phosphate transport, luminal Ca present” value was “stimulated”.
In the case of `CCCCC(=O)O[C@]1(C(=O)CO)CC[C@H]2[C@@H]3CCC4=CC(=O)CC[C@]4(C)[C@H]3[C@@H](O)C[C@@]21C` [Hydrocort Val 02%], in series [4], the “effect of prior treatment on itch” value was “did not help” and the “effect of prior treatment on redness” value is on record as “did not help”.
In the case of `C=C1CCC(O)C/C1=C\C=C1\CCCC2(C)C1CCC2C(C)CCC(O)C(C)(C)O` (stereo not drawn) [24,25-dihydroxyvitamin D3], the “influence of presence or absence of luminal Ca on phosphate transport” value in series [5] is reported as “did not influence”.
`C=C1/C(=C\C=C2/CCC[C@]3(C)[C@@H]([C@H](C)/C=C/[C@@H](O)C4CC4)CC[C@@H]23)C[C@@H](O)C[C@@H]1O` [calcipotriol]: the “effect on lesions from atopic dermatitis” value in series [3] is reported as “improvement of lesions”.
Turning to `CC1(C)O[C@@H]2C[C@H]3[C@@H]4CCC5=CC(=O)C=C[C@]5(C)[C@H]4[C@@H](O)C[C@]3(C)[C@]2(C(=O)CO)O1` [Desonide 0.5%, Desonide], in series [4], the “effect of prior treatment on itch” value is listed as “gives itch relief” and the “effect of prior treatment on redness” value is given as “reduces redness”.
For the molecule `C=C1/C(=C\C=C2/CCC[C@]3(C)[C@@H]([C@H](C)CCCC(C)(C)O)CC[C@@H]23)C[C@@H](O)C[C@@H]1O` [1,25-dihydroxyvitamin D3], in series [5], the “influence of presence or absence of luminal Ca on phosphate transport” value is recorded as “did not influence”.
Consider `CC(=O)OCC(=O)[C@@]12OC(C)(C)O[C@@H]1C[C@H]1[C@@H]3C[C@H](F)C4=CC(=O)C=C[C@]4(C)[C@@]3(F)[C@@H](O)C[C@@]12C` [Fluocinonide 0.05%, Fluocinonide], for which the “effectiveness of prior treatment” value in series [4] (prior treatment of the Example 5 patient, self-reported) is given as “fairly effective”.
